Data as given in EP0054589B1, “Organic phosphoric acid ester derivatives, a process for preparing the same and insecticidal, miticidal or nematocidal compositions containing the same” (priority 1980, dated 1982).

What was measured:
[1] = tested on: smaller tea tortrix; experiment: Insecticidal effect on smaller tea tortrix (apple leaf dip); format: in vivo; conditions: Adoxophyes orana, foliar; Table 9; 100 ppm; after 72 hours, 25°C; wettable powder as Formulation Example 5; read-out: Percent Mortality
[2] = tested on: diamond back moth; experiment: Insecticidal effect on diamond-back moth (cabbage leaf dip); format: in vivo, Plutella xylostella; conditions: 100 ppm, after 72 hours, 25°C
Method in brief: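 Cabbage leaves dipped 10 s in water-diluted emulsifiable concentrate at set concentration, air-dried; thirty 3rd-instar diamond-back moth larvae per cup held at 25°C. Percent mortality scored after 72 h, three replicates per treatment.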

[3] = tested on: egg plant; experiment: Phytotoxicity observed visually in the mite test on egg plant; format: in vivo; parameters: key: —: None; +: Slightly toxic; ++: Toxic; +++: Strongly toxic; conditions: 500 ppm, observed visually on the 7th day after the application
Protocol: (§1) (A) An emulsifiable concentrate prepared as described in Formulation Example 1 and diluted to a predetermined concentration was sprayed using a spray-gun on a seedling of an egg plant placed in a pot of 12 cm in diametre to which plant carmine mites resistant to Kelthane were parasitic. After drying in air, seedlings were kept in a green house, and the number of living insects was recorded on the 7th, 14th, 21 st and 28th day from the day of application to determine the control effects. Three pots were used for each treatment. The control effect was assessed by the formula described in TEST EXAMPLE 7 above. Further, phytotoxicity was observed visually on the 7th day after the application.
as §1, with “(B) An” for “(A) An”, “Example 3” for “Example 1”, “in diameter” for “in diametre”, “in Test” for “in TEST”

[4] = tested on: tobacco cutworm; experiment: Long-lasting insecticidal effect on tobacco cutworm (sprayed cabbage plantlet); format: in vivo, Prodenia litura; conditions: concentration 500 (unit not given), mortality after 48 hours; for Percent Mortality After Application 3rd Day: leaves cut on 3rd day; for Percent Mortality After Application 5th Day: leaves cut on 5th day; for Percent Mortality After Application 7th Day: leaves cut on 7th day; for Percent Mortality After Application 10th Day: leaves cut on 10th day; for Percent Mortality After Application 15th Day: leaves cut on 15th day
Method in brief: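 Cabbage plantlets sprayed with water-diluted emulsifiable concentrate and held in a greenhouse; leaves cut on days 3, 5, 7, 10 and 15 and fed to 3rd-instar larvae at 25°C. Percent mortality scored after 48 h; 3 replicates, 30 insects each.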

[5] = tested on: Beet; experiment: Phytotoxicity on various crops; format: in vivo; parameters: key: Symbol — indicates that no toxicity was observed; conditions: 500 ppm sprayed; checked visually after 10 days
Method in brief: (§2)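 EC diluted to 500 ppm a.i., sprayed generously by gun; greenhouse, 10 d; visual phytotoxicity check; triplicate.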

[6] = tested on: Tomato; experiment: Phytotoxicity on various crops; format: in vivo; parameters: key: Symbol — indicates that no toxicity was observed; conditions: 500 ppm sprayed; checked visually after 10 days
Method in brief: as §2

[7] = tested on: Green Pepper; experiment: Phytotoxicity on various crops; format: in vivo; parameters: key: Symbol — indicates that no toxicity was observed; conditions: 500 ppm sprayed; checked visually after 10 days
Method in brief: as §2

[8] = tested on: Cotton; experiment: Phytotoxicity on various crops; format: in vivo; parameters: key: Symbol — indicates that no toxicity was observed; conditions: 500 ppm sprayed; checked visually after 10 days
Method in brief: as §2

[9] = tested on: Apple; experiment: Phytotoxicity on various crops; format: in vivo; parameters: key: Symbol — indicates that no toxicity was observed; conditions: 500 ppm sprayed; checked visually after 10 days
Method in brief: as §2

[10] = tested on: Rice; experiment: Phytotoxicity on various crops; format: in vivo; parameters: key: Symbol — indicates that no toxicity was observed; conditions: 500 ppm sprayed; checked visually after 10 days
Method in brief: as §2

[11] = tested on: carmine mites; experiment: Miticidal effect on carmine mite (sprayed kidney bean seedling); format: in vivo, Tetranychus cinnabarius; conditions: 500 ppm
Protocol: An emulsifiable concentrate prepared as described in Formulation Example 1 and diluted to a predetermined concentration was sprayed using a spray-gun on a seedling of a kidney bean placed in a pot of 12 cm in diameter to which plant carmine mites were parasitic. After drying in air, seedlings were kept in a green house, and the number of living insects was recorded on the 7th, 14th, 21st and 28th day from the day of application to determine the control effects. Three pots were used for each treatment. The control effect was assessed by the following formula: [formula] • wherein Σ indicates sum and Cb, Tb, Cai and Tai have the following meanings. • Cb: Number of living mites in non-treated sample before application. • Tb: Number of living mites in treated sample before application. • Cai: Number of living mites in non-treated sample 7th, 14th, 21 st or 28th day from the application. • Tai: Number of living mites in treated sample 7th, 14th, 21st or 28th day from the application.

[12] = Table 7, emulsifiable concentrate as Formulation Example 1

CCCSP(=S)(OCC)Oc1ccc2c(c1)OC(C)=CC2(C)C (stereo not drawn) [Compound No. 10]
mortality at 100 ppm [1]: 96.7%
Percent Mortality (%) [2, 12]: 100%
Phytotoxicit ([3]; Table 13): —
Phytotoxicit ([3]; Table 14): —
Percent Mortality After Application 3rd Day ([4]; Table 5): 100%
Percent Mortality After Application 5th Day ([4]; Table 5): 100%
Percent Mortality After Application 7th Day ([4]; Table 5): 100%
Percent Mortality After Application 10th Day ([4]; Table 5): 100%
Percent Mortality After Application 15th Day ([4]; Table 5): 96.7%
Phytotoxicity: Beet [5]: —
Phytotoxicity: Tomato [6]: —
Phytotoxicity: Green Pepper [7]: —
Phytotoxicity: Cotton [8]: —
Phytotoxicity: Apple [9]: —
Phytotoxicity: Rice [10]: —
Control Effect (%) [11]: 97.6%
Number of Living Mites after Application 7th Day [11]: 0
Number of Living Mites after Application 14th Day [11]: 0
Number of Living Mites after Application 21st Day [11]: 2
Number of Living Mites after Application 28th Day [11]: 19

CCCSP(=O)(OC)Oc1ccc2c(c1)OC(C)=CC2(C)C (stereo not drawn) [Compound No. 1]
mortality at 100 ppm [1]: 100%
Percent Mortality (%) [2, 12]: 100%
Phytotoxicit ([3]; Table 13): —
Percent Mortality After Application 3rd Day ([4]; Table 5): 100%
Percent Mortality After Application 5th Day ([4]; Table 5): 100%
Percent Mortality After Application 7th Day ([4]; Table 5): 100%
Percent Mortality After Application 10th Day ([4]; Table 5): 100%
Percent Mortality After Application 15th Day ([4]; Table 5): 100%
Phytotoxicity: Beet [5]: —
Phytotoxicity: Tomato [6]: —
Phytotoxicity: Green Pepper [7]: —
Phytotoxicity: Cotton [8]: —
Phytotoxicity: Apple [9]: —
Phytotoxicity: Rice [10]: —
Control Effect (%) [11]: 99.6%
Number of Living Mites after Application 7th Day [11]: 0
Number of Living Mites after Application 14th Day [11]: 0
Number of Living Mites after Application 21st Day [11]: 0
Number of Living Mites after Application 28th Day [11]: 3

CCCSP(=O)(OCC)Oc1ccc2c(c1)OC(C)(C)C=C2C (stereo not drawn) [Compound No. 20, O-ethyl-S-propyl-0-(2,2,4-trimethyl-1,2-benzopyran-7-yl)phosphorothioate]
Percent Mortality (%) [2, 12]: 100%
Percent Mortality (%) ([2]; Table 8, emulsifiable concentrate as Formulation Example 4): 100%
Percent Mortality After Application 3rd Day ([4]; Table 5): 100%
Percent Mortality After Application 5th Day ([4]; Table 5): 100%
Percent Mortality After Application 7th Day ([4]; Table 5): 100%
Percent Mortality After Application 10th Day ([4]; Table 5): 100%
Percent Mortality After Application 15th Day ([4]; Table 5): 33.3%
Percent Mortality After Application 3rd Day ([4]; Table 6): 100%
Percent Mortality After Application 5th Day ([4]; Table 6): 100%
Percent Mortality After Application 7th Day ([4]; Table 6): 100%
Percent Mortality After Application 10th Day ([4]; Table 6): 90.0%
Percent Mortality After Application 15th Day ([4]; Table 6): 46.7%
Percent Mortality After Application Immediately after Application ([4]; Table 6): 100%
Phytotoxicity: Beet [5]: —
Phytotoxicity: Tomato [6]: —
Phytotoxicity: Green Pepper [7]: —
Phytotoxicity: Cotton [8]: —
Phytotoxicity: Apple [9]: —
Phytotoxicity: Rice [10]: —

CCCSP(=O)(OCC)Oc1ccc2c(c1)OC(C)=CC2(C)C (stereo not drawn) [Compound No. 2, O-ethyl-S-propyl-O-(2,4,4-trimethyl-1,4-benzopyran-7-yl)phosphorothioate]
mortality at 100 ppm [1]: 100%
Percent Mortality (%) [2, 12]: 100%
Phytotoxicit ([3]; Table 13): —
Percent Mortality After Application 3rd Day ([4]; Table 5): 100%
Percent Mortality After Application 5th Day ([4]; Table 5): 100%
Percent Mortality After Application 7th Day ([4]; Table 5): 100%
Percent Mortality After Application 10th Day ([4]; Table 5): 100%
Percent Mortality After Application 15th Day ([4]; Table 5): 100%
Phytotoxicity: Beet [5]: —
Phytotoxicity: Tomato [6]: —
Phytotoxicity: Green Pepper [7]: —
Phytotoxicity: Cotton [8]: —
Phytotoxicity: Apple [9]: —
Phytotoxicity: Rice [10]: —
Control Effect (%) [11]: 99.0%
Number of Living Mites after Application 7th Day [11]: 0
Number of Living Mites after Application 14th Day [11]: 0
Number of Living Mites after Application 21st Day [11]: 0
Number of Living Mites after Application 28th Day [11]: 11

CCCSP(=S)(OC)Oc1ccc2c(c1)OC(C)=CC2(C)C (stereo not drawn) [Compound No. 9, 0-methyl-S-propyl-(2,4,4-trimethyl-1,4-benzopyran-7-yl)phosphorodithioate]
mortality at 100 ppm [1]: 100%
Percent Mortality (%) [2, 12]: 100%
Phytotoxicit ([3]; Table 13): —
Percent Mortality After Application 3rd Day ([4]; Table 5): 100%
Percent Mortality After Application 5th Day ([4]; Table 5): 100%
Percent Mortality After Application 7th Day ([4]; Table 5): 100%
Percent Mortality After Application 10th Day ([4]; Table 5): 100%
Percent Mortality After Application 15th Day ([4]; Table 5): 93.3%
Phytotoxicity: Beet [5]: —
Phytotoxicity: Tomato [6]: —
Phytotoxicity: Green Pepper [7]: —
Phytotoxicity: Cotton [8]: —
Phytotoxicity: Apple [9]: —
Phytotoxicity: Rice [10]: —
Control Effect (%) [11]: 99.0%
Number of Living Mites after Application 7th Day [11]: 0
Number of Living Mites after Application 14th Day [11]: 0
Number of Living Mites after Application 21st Day [11]: 0
Number of Living Mites after Application 28th Day [11]: 8
